# Measurements: US8835134B2, “Cycloastragenol monoglucoside, preparation, pharmaceutical composition and application thereof” (Tianjin Institute of Pharmaceutical Research, priority 2007, dated 2014)
# Test system: anesthetized open-chest dogs
# Assay: Hemodynamics of anesthetized open-chest dogs, intravenous infusion
# Assay type: in vivo, mongrel dogs
# Description: The animals were anesthetized by intravenous injection of 30 mg/kg sodium pentobarbital, tracheally intubated, and mechanically ventilated with positive air pressure. Left thoracotomy was performed through the fourth intercostal space and the heart was suspended in a pericardial cradle, the aortic root was isolated and a probe of blood flow meter (12 or 14 mm in diameter) was fixed to measure the aortic blood flow as a representation of cardiac output (CO), the circumflex branch of left coronary artery was isolated and a probe of blood flow meter (2 or 2.5 mm in diameter) was fixed to measure the coronary blood flow (CBF). A polyethylene catheter filled with heparin physiological saline was inserted through cardiac apex into the left ventricle to measure the left ventricular pressure (LVP) and left ventricular end-diastolic pressure (LVEDP), Peak positive and peak negative first derivatives of the LVP (+ LVdp/dt and − LVdp/dt) were calculated with the Acknowledge software. The systolic blood pressure (SBP), diastolic blood pressure (DBP) and mean arterial pressure (MAP) were measured by polyethylene catheter via the femoral artery, ECG □ was measured by a AC-601G ECG amplifier. The above-mentioned analog signal was input into a data acquisition workstation (MP100, BIOPAC Systems, USA) to a computer running Acknowledge (version 3.7.1).
# After surgery, various indexes before administration were recorded until the indexes were stable, and then intravenous infusion administration was conducted. Thirty dogs were divided into five groups (six dogs in each group), the experiment groups were given 0.15, 0.3, 0.6 mg/kg of ASP-[…] respectively, the normal control group was given 1 ml/kg of solvent, and the positive control group was given 0.3 mg/kg of astragaloside IV. The delivery volumes were 15 ml for each dog was and the delivery velocity was 1 ml/min. The indexes were recorded at 5, 10, 15, 20, 30, 45, 60, 90 and 120 mins after drug administration. At the end of experiment, the hearts were excised and weighted. The myocardial blood flow for per hectogram (CF), coronary resistance (CR), cardiac index (CI), left ventricular work (LVW) and total peripheral resistance (TPR) were calculated according to the following formulae: CF=CBF×[…]/heart weight CR=MAP/CF CI=CO/0.11×(body weight)^2/3 LVW=CO×(MAP−5)×1.052×0.0136 TPR=MAP×79.92/CO
# Data are expressed as mean±SD ( x±s), the paired t-test was used to compare the significance between before and after administration, the unpaired t-test was adopted for comparison between groups.
# [1] = 0.3 mg/kg iv, 45 min after administration
# [2] = 0.3 mg/kg iv, 60 min after administration
# [3] = 0.3 mg/kg iv, 90 min after administration
# [4] = 0.3 mg/kg iv, 120 min after administration
# [5] = 0.3 mg/kg iv, before administration
# [6] = 0.6 mg/kg iv, 5 min after administration
# [7] = 0.6 mg/kg iv, 10 min after administration
# [8] = 0.6 mg/kg iv, 15 min after administration
compound,measurement,setting,value
"CC(C)(O)[C@@H]1CC[C@](C)([C@H]2[C@@H](O)C[C@@]3(C)C4C[C@H](OC5OC(CO)C(O)C(O)C5O)C5C(C)(C)[C@@H](O)CC[C@@]56C[C@@]46CC[C@]23C)O1 (stereo partly drawn) [CMG, Cycloastragenol-6-O-β-D-glucoside]",−dp/dt change vs before administration,"0.3 mg/kg iv, 30 min after administration",(36 ± 97) mmHg/s
same,CF,[1],51.7 ± 23.5 ml/min/100 g
same,CF change vs before administration,[1],(1.6 ± 6.8) ml/min/100 g
same,CI,[1],1.85 ± 0.84 L/min/m^2
same,CI change vs before administration,[1],(−0.13 ± 0.13) L/min/m^2
same,CO,[1],1.03 ± 0.39 L/min
same,CO change vs before administration,[1],(−0.07 ± 0.07) L/min
same,CR,[1],1.65 ± 0.92 mmHg/ml/min/100 g
same,CR change vs before administration,[1],(0.11 ± 0.29) mmHg/ml/min/100 g
same,LVEDP,[1],0.5 ± 2.3 mmHg
same,LVEDP change vs before administration,[1],(−1.28 ± 0.75) mmHg
same,LVP,[1],98 ± 22 mmHg
same,LVP change vs before administration,[1],(−4.8 ± 5.5) mmHg
same,LVW,[1],1.00 ± 0.48 kg · m
same,LVW change vs before administration,[1],(−0.02 ± 0.11) kg · m
same,TPR,[1],6068 ± 2331 dyn · s/cm^5
same,TPR change vs before administration,[1],(768 ± 937) dyn · s/cm^5
same,dp/dt,[1],1285 ± 453 mmHg/s
same,dp/dt change vs before administration,[1],(24 ± 83) mmHg/s
same,−dp/dt,[1],−878 ± 266 mmHg/s
same,−dp/dt change vs before administration,[1],(43 ± 117) mmHg/s
same,CF,[2],51.7 ± 23.9 ml/min/100 g
same,CF change vs before administration,[2],(1.6 ± 6.8) ml/min/100 g
same,CI,[2],1.80 ± 0.93 L/min/m^2
same,CI change vs before administration,[2],(−0.19 ± 0.42) L/min/m^2
same,CO,[2],1.00 ± 0.45 L/min
same,CO change vs before administration,[2],(−0.10 ± 0.25) L/min
same,CR,[2],1.54 ± 0.75 mmHg/ml/min/100 g
same,CR change vs before administration,[2],(0.01 ± 0.19) mmHg/ml/min/100 g
same,LVEDP,[2],0.8 ± 2.8 mmHg
same,LVEDP change vs before administration,[2],(−0.98 ± 0.88) mmHg
same,LVP,[2],98 ± 22 mmHg
same,LVP change vs before administration,[2],(−5.7 ± 6.0) mmHg
same,LVW,[2],0.90 ± 0.43 kg · m
same,LVW change vs before administration,[2],(−0.12 ± 0.26) kg · m
same,TPR,[2],6625 ± 4423 dyn · s/cm^5
same,TPR change vs before administration,[2],(1326 ± 3485) dyn · s/cm^5
same,dp/dt,[2],1272 ± 479 mmHg/s
same,dp/dt change vs before administration,[2],(11 ± 94) mmHg/s
same,−dp/dt,[2],−833 ± 236 mmHg/s
same,−dp/dt change vs before administration,[2],(88 ± 199) mmHg/s
same,CF,[3],51.1 ± 19.1 ml/min/100 g
same,CF change vs before administration,[3],(1.0 ± 4.7) ml/min/100 g
same,CI,[3],1.74 ± 0.98 L/min/m^2
same,CI change vs before administration,[3],(−0.25 ± 0.42) L/min/m^2
same,CO,[3],0.96 ± 0.47 L/min
same,CO change vs before administration,[3],(−0.14 ± 0.24) L/min
same,CR,[3],1.51 ± 0.66 mmHg/ml/min/100 g
same,CR change vs before administration,[3],(−0.02 ± 0.16) mmHg/ml/min/100 g
same,LVEDP,[3],0.9 ± 2.6 mmHg
same,LVEDP change vs before administration,[3],(−0.83 ± 0.72) mmHg
same,LVP,[3],99 ± 20 mmHg
same,LVP change vs before administration,[3],(−4.5 ± 7.0) mmHg
same,LVW,[3],0.90 ± 0.53 kg · m
same,LVW change vs before administration,[3],(−0.12 ± 0.32) kg · m
same,TPR,[3],7000 ± 4452 dyn · s/cm^5
same,TPR change vs before administration,[3],(1701 ± 3472 dyn · s/cm^5
same,dp/dt,[3],1242 ± 437 mmHg/s
same,dp/dt change vs before administration,[3],(−19 ± 39) mmHg/s
same,−dp/dt,[3],−909 ± 312 mmHg/s
same,−dp/dt change vs before administration,[3],(12 ± 172) mmHg/s
same,CF,[4],50.7 ± 20.1 ml/min/100 g
same,CF change vs before administration,[4],(0.5 ± 2.0) ml/min/100 g
same,CI,[4],1.81 ± 1.07 L/min/m^2
same,CI change vs before administration,[4],(−0.17 ± 0.52) L/min/m^2
same,CO,[4],1.00 ± 0.52 L/min
same,CO change vs before administration,[4],(−0.10 ± 0.30) L/min
same,CR,[4],1.60 ± 0.82 mmHg/ml/min/100 g
same,CR change vs before administration,[4],(0.07 ± 0.21) mmHg/ml/min/100 g
same,LVEDP,[4],1.0 ± 2.1 mmHg
same,LVEDP change vs before administration,[4],(−0.71 ± 0.45) mmHg
same,LVP,[4],100 ± 23 mmHg
same,LVP change vs before administration,[4],(−3.5 ± 10.3) mmHg
same,LVW,[4],0.94 ± 0.54 kg · m
same,LVW change vs before administration,[4],(−0.08 ± 0.37) kg · m
same,TPR,[4],7219 ± 5040 dyn · s/cm^5
same,TPR change vs before administration,[4],(1920 ± 3990) dyn · s/cm^5
same,dp/dt,[4],1309 ± 433 mmHg/s
same,dp/dt change vs before administration,[4],(48 ± 92) mmHg/s
same,−dp/dt,[4],−894 ± 278 mmHg/s
same,−dp/dt change vs before administration,[4],(27 ± 63) mmHg/s
same,+LVdp/dtmax maximum increase,"0.3 mg/kg iv, at 5-10 min after administration",12.0±5.0%
same,CF,[5],50.2 ± 19.5 ml/min/100 g
same,CI,[5],1.98 ± 0.84 L/min/m^2
same,CO,[5],1.10 ± 0.38 L/min
same,CR,[5],1.53 ± 0.67 mmHg/ml/min/100 g
same,LVEDP,[5],1.7 ± 2.2 mmHg
same,LVP,[5],103 ± 20 mmHg
same,LVW,[5],1.02 ± 0.47 kg · m
same,TPR,[5],5299 ± 1597 dyn · s/cm^5
same,dp/dt,[5],1261 ± 453 mmHg/s
same,−dp/dt,[5],−921 ± 311 mmHg/s
same,LVEDP maximum decrease,0.6 mg/kg iv,2.1±0.5 mmHg
same,CF,[6],51.7 ± 10.5 ml/min/100 g
same,CF change vs before administration,[6],(0.5 ± 3.1) ml/min/100 g
same,CI,[6],2.00 ± 0.56 L/min/m^2
same,CI change vs before administration,[6],(0.04 ± 0.16) L/min/m^2
same,CO,[6],1.18 ± 0.42 L/min
same,CO change vs before administration,[6],(0.03 ± 0.09) L/min
same,CR,[6],1.44 ± 0.39 mmHg/ml/min/100 g
same,CR change vs before administration,[6],(0.02 ± 0.08) mmHg/ml/min/100 g
same,LVEDP,[6],1.5 ± 1.6 mmHg
same,LVEDP change vs before administration,[6],(−1.17 ± 0.78) mmHg
same,LVP,[6],105 ± 14 mmHg
same,LVP change vs before administration,[6],(−1.1 ± 3.5) mmHg
same,LVW,[6],1.11 ± 0.38 kg · m
same,LVW change vs before administration,[6],(0.03 ± 0.11) kg · m
same,TPR,[6],5474 ± 2219 dyn · s/cm^5
same,TPR change vs before administration,[6],(−32 ± 572) dyn · s/cm^5
same,dp/dt,[6],1186 ± 316 mmHg/s
same,dp/dt change vs before administration,[6],(83 ± 55) mmHg/s
same,−dp/dt,[6],−850 ± 223 mmHg/s
same,−dp/dt change vs before administration,[6],(2 ± 31) mmHg/s
same,CF,[7],51.2 ± 8.4 ml/min/100 g
same,CF change vs before administration,[7],(0.0 ± 2.2) ml/min/100 g
same,CI,[7],2.01 ± 0.39 L/min/m^2
same,CI change vs before administration,[7],(0.05 ± 0.20) L/min/m^2
same,CO,[7],1.17 ± 0.33 L/min
same,CO change vs before administration,[7],(0.02 ± 0.11) L/min
same,CR,[7],1.44 ± 0.40 mmHg/ml/min/100 g
same,CR change vs before administration,[7],(0.03 ± 0.12) mmHg/ml/min/100 g
same,LVEDP,[7],0.9 ± 1.6 mmHg
same,LVEDP change vs before administration,[7],(−1.74 ± 0.68) mmHg
same,LVP,[7],105 ± 17 mmHg
same,LVP change vs before administration,[7],(−1.3 ± 5.0) mmHg
same,LVW,[7],1.11 ± 0.34 kg · m
same,LVW change vs before administration,[7],(0.03 ± 0.15) kg · m
same,TPR,[7],5261 ± 1874 dyn · s/cm^5
same,TPR change vs before administration,[7],(−246 ± 497) dyn · s/cm^5
same,dp/dt,[7],1198 ± 278 mmHg/s
same,dp/dt change vs before administration,[7],(95 ± 70) mmHg/s
same,−dp/dt,[7],−857 ± 238 mmHg/s
same,−dp/dt change vs before administration,[7],(−4 ± 46) mmHg/s
same,CF,[8],51.4 ± 8.3 ml/min/100 g
same,CF change vs before administration,[8],(0.2 ± 3.7) ml/min/100 g
same,CI,[8],2.05 ± 0.50 L/min/m^2
same,CI change vs before administration,[8],(0.09 ± 0.16) L/min/m^2
same,CO,[8],1.20 ± 0.38 L/min
same,CO change vs before administration,[8],(0.05 ± 0.09) L/min
same,CR,[8],1.43 ± 0.35 mmHg/ml/min/100 g
same,CR change vs before administration,[8],(0.01 ± 0.07) mmHg/ml/min/100 g
same,LVEDP,[8],1.3 ± 1.6 mmHg
same,LVEDP change vs before administration,[8],(−1.38 ± 0.51) mmHg
same,LVP,[8],105 ± 17 mmHg
same,LVP change vs before administration,[8],(−0.8 ± 4.1) mmHg
same,LVW,[8],1.14 ± 0.41 kg · m
